How the values were obtained:
[1] = target: T1, GDP-loaded KRAS (1-169) G12C, C51S, C80L, C118S (Homo sapiens, UniProt P01116, C118S/C51S/C80L/G12C); test: Mass Spectrometry Reactivity Assay (MSRA): covalent adduct of compound and KRAS G12C, Percent Modification; assay type: binding; conditions: for MSRA (% modification) 5.0 μM 0.25 hr / MSRA (% modification) 5.0 μM 0.017 hr: 5.0 μM compound; for MSRA (% modification) 10 μM 0.25 hr / MSRA (% modification) 10 μM 0.50 hr: 10 μM compound
T1 construct: GDP-loaded KRAS (1-169) G12C, C51S, C80L, C118S
Method in brief: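 Covalent labelling is measured by intact mass: deconvoluted modified and unmodified peak intensities yield percent modification. Compound, usually 5 μM or 10 μM final, reacts at room temperature with 5 μM GDP-bound KRAS G12C (1-169, C51S/C80L/C118S) in Hepes pH 7.5/NaCl/glycerol, sampled at 1, 15, 30, 60 min.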

KRAS G12C = KRAS G12C (Homo sapiens, UniProt P01116, G12C); test: Cell Activity Assay: accumulation of GDP-bound KRAS G12C in MIAPaCa-2 cells (Raf-1 RBD capture, MSD readout); assay type: cell-based; set-up: endogenous in cells; host or cells: MIAPaCa-2; conditions: 6 hours, assay limit is 30.00
Method in brief: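 IC50 came from a 4-parameter fit of Ras signal normalized between DMSO and full-inhibition controls. Readout: lysate GTP-Ras bound to immobilized Raf-1 RBD, quantified with pan-Ras antibody and MSD electrochemiluminescence. Lysates derived from MIAPaCa-2 cells treated 6 h with serially diluted compound, 0.3% DMSO.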

## C=CC(=O)N1CCN(c2nc(OCC(C)(C)O)nc3c(Oc4c(Cl)c(F)cc5[nH]ncc45)nc(Cl)cc23)CC1 [Example 13G, 1-(4-{6-chloro-8-[(5-chloro-6-fluoro-1H-indazol-4-yl)oxy]-2-(2-hydroxy-2-methylpropoxy)pyrido[3,4-d]pyrimidin-4-yl}piperazin-1-yl)prop-2-en-1-one]
[1]
  MSRA (% modification) 5.0 μM 0.25 hr: 70%
  MSRA (% modification) 10 μM 0.25 hr: 78%
  MSRA (% modification) 10 μM 0.50 hr: 80%
KRAS G12C
  IC50: 0.16 µM

## C=CC(=O)N1CCN(c2nc(O[C@@H]3CCN(CCOC)C[C@H]3C)nc3c(Oc4c(Cl)c(F)cc5[nH]ncc45)nc(Cl)cc23)CC1 (racemic) [Example 33G, rac-1-[4-(6-chloro-8-[(5-chloro-6-fluoro-1H-indazol-4-yl)oxy]-2-{[(3R,4R)-1-(2-methoxyethyl)-3-methylpiperidin-4-yl]oxy}pyrido[3,4-d]pyrimidin-4-yl)piperazin-1-yl]prop-2-en-1-one]
[1]
  MSRA (% modification) 5.0 μM 0.017 hr: 51%
KRAS G12C
  IC50: 0.052 µM

## C=CC(=O)N1CCN(c2ncnc3c(Oc4c(F)c(Cl)cc5[nH]ncc45)nc(Cl)cc23)CC1 [Example 34A, 1-(4-{6-chloro-8-[(6-chloro-5-fluoro-1H-indazol-4-yl)oxy]pyrido[3,4-d]pyrimidin-4-yl}piperazin-1-yl)prop-2-en-1-one]
[1]
  MSRA (% modification) 5.0 μM 0.25 hr: 19%
  MSRA (% modification) 10 μM 0.25 hr: 47%
KRAS G12C
  IC50: 1.29 µM

## C=CC(=O)N1CCN(c2nc(OC[C@@H]3CCCN3C)nc3c(Oc4c(C)c(Cl)cc5[nH]ncc45)cccc23)CC1 [Example 22E, 1-[4-(8-[(6-chloro-5-methyl-1H-indazol-4-yl)oxy]-2-{[(2S)-1-methylpyrrolidin-2-yl]methoxy}quinazolin-4-yl)piperazin-1-yl]prop-2-en-1-one]
[1]
  MSRA (% modification) 5.0 μM 0.25 hr: 83%
  MSRA (% modification) 10 μM 0.25 hr: 81%
  MSRA (% modification) 10 μM 0.50 hr: 83%
KRAS G12C
  IC50: 0.056 µM

## C=CC(=O)N1CCN(c2nc(OC[C@@H]3C[C@@H](OC)CN3C)nc3c(Oc4c(Cl)c(F)cc5[nH]ncc45)nccc23)CC1 [Example 13H, 1-[4-(8-[(5-chloro-6-fluoro-1H-indazol-4-yl)oxy]-2-{[(2S,4R)-4-methoxy-1-methylpyrrolidin-2-yl]methoxy}pyrido[3,4-d]pyrimidin-4-yl)piperazin-1-yl]prop-2-en-1-one]
[1]
  MSRA (% modification) 5.0 μM 0.25 hr: 65%
  MSRA (% modification) 10 μM 0.25 hr: 83%
KRAS G12C
  IC50: 0.311 µM

## C=CC(=O)N1CCN(c2nc(O[C@@H]3CN(C)C[C@H]3OC)nc3c(Oc4c(C)c(Cl)cc5[nH]ncc45)nccc23)CC1 [Example 40I, 1-[4-(8-[(6-chloro-5-methyl-1H-indazol-4-yl)oxy]-2-{[(3R,4R)-4-methoxy-1-methyl-pyrrolidin-3-yl]oxy}pyrido [3,4-d]pyrimidin-4-yl)piperazin-1-yl]prop-2-en-1-one]
[1]
  MSRA (% modification) 5.0 μM 0.017 hr: 68%
KRAS G12C
  IC50: 0.02 µM

## C=CC(=O)N1CCN(c2nc(OCCNC(C)=O)nc3c(Oc4c(C)ccc5[nH]ncc45)cccc23)CC1 [Example 17F, N-[2-({4-(4-acryloylpiperazin-1-yl)-8-[(5-methyl-1H-indazol-4-yl)oxy]quinazolin-2-yl}oxy)ethyl]acetamide]
[1]
  MSRA (% modification) 10 μM 0.25 hr: 36%
  MSRA (% modification) 10 μM 0.50 hr: 60%
KRAS G12C
  IC50: 4.59 µM

## C=CC(=O)N1CCN(c2ncnc3c(Oc4c(Cl)ccc5[nH]ncc45)cccc23)[C@@H](C)C1 [Example 09C, 1-[(3S)-4-{8-[(5-chloro-1H-indazol-4-yl)oxy]quinazolin-4-yl}-3-methylpiperazin-1-yl]prop-2-en-1-one]
[1]
  MSRA (% modification) 10 μM 0.50 hr: 34%
KRAS G12C
  IC50: 2.87 µM

## C=CC(=O)N1CCN(c2nc(O[C@@H]3CCN(C)C[C@H]3C)nc3c(Oc4c(Cl)c(F)cc5[nH]ncc45)nc(Cl)cc23)CC1 (racemic) [Example 34G, rac-1-[4-(6-chloro-8-[(5-chloro-6-fluoro-1H-indazol-4-yl)oxy]-2-{[(3R,4R)-1,3-dimethylpiperidin-4-yl]oxy}pyrido[3,4-d]pyrimidin-4-yl)piperazin-1-yl]prop-2-en-1-one]
[1]
  MSRA (% modification) 5.0 μM 0.017 hr: 47%
KRAS G12C
  IC50: 0.063 µM

## C=CC(=O)N1CCN(c2ncnc3c(Oc4c(C)c(Cl)cc5[nH]ncc45)nc(C#N)cc23)C[C@@H]1C [Example 33A, 4-[(3S)-4-acryloyl-3-methylpiperazin-1-yl]-8-[(6-chloro-5-methyl-1H-indazol-4-yl)oxy]pyrido[3,4-d]pyrimidine-6-carbonitrile]
[1]
  MSRA (% modification) 10 μM 0.50 hr: 34%
KRAS G12C
  IC50: > 30 µM

## C=CS(=O)(=O)N1CCN(c2ncnc3c(Oc4c(Cl)c(C)cc5[nH]ncc45)nccc23)CC1 [Example 04, 8-[(5-chloro-6-methyl-1H-indazol-4-yl)oxy]-4-[4-(ethenylsulfonyl)piperazin-1-yl]pyrido[3,4-d]pyrimidine]
[1]
  MSRA (% modification) 10 μM 0.50 hr: 25%
KRAS G12C
  IC50: 11.7 µM

## C=CC(=O)N1CCN(c2nc(NCC3CCC(=O)N3)nc3c(Oc4c(C)ccc5[nH]ncc45)cccc23)CC1 (stereo not drawn) [Example 12F, 5-[({4-(4-acryloylpiperazin-1-yl)-8-[(5-methyl-1H-indazol-4-yl)oxy]quinazolin-2-yl}amino)methyl]pyrrolidin-2-one]
[1]
  MSRA (% modification) 10 μM 0.50 hr: 20%
KRAS G12C
  IC50: 29.1 µM

## C=CC(=O)N1CCN(c2nc(OC[C@@H]3CCCN3C)nc3c(Oc4c(Cl)c(C)cc5[nH]ncc45)nc(Cl)cc23)CC1 [Example 06G, 1-[4-(6-chloro-8-[(5-chloro-6-methyl-1H-indazol-4-yl)oxy]-2-{[(2S)-1-methylpyrrolidin-2-yl]methoxy}pyrido[3,4-d]pyrimidin-4-yl)piperazin-1-yl]prop-2-en-1-one]
[1]
  MSRA (% modification) 5.0 μM 0.017 hr: 23%
  MSRA (% modification) 5.0 μM 0.25 hr: 52%
  MSRA (% modification) 10 μM 0.25 hr: 82%
KRAS G12C
  IC50: 0.064 µM

## C=CC(=O)N1CCN(c2ncnc3c(Oc4c(Cl)c(Cl)cc5[nH]ncc45)nccc23)CC1 [Example 29A, 1-(4-{8-[(5,6-dichloro-1H-indazol-4-yl)oxy]pyrido[3,4-d]pyrimidin-4-yl}piperazin-1-yl)prop-2-en-1-one]
[1]
  MSRA (% modification) 10 μM 0.25 hr: 70%
  MSRA (% modification) 10 μM 0.50 hr: 76%
KRAS G12C
  IC50: 0.391 µM

## C=CC(=O)N1CCN(c2ncnc3c(Oc4c(Cl)c(Cl)cc5[nH]ncc45)nc(Cl)cc23)CC1 [Example 30A, 1-(4-{6-chloro-8-[(5,6-dichloro-1H-indazol-4-yl)oxy]pyrido[3,4-d]pyrimidin-4-yl}piperazin-1-yl)prop-2-en-1-one]
[1]
  MSRA (% modification) 10 μM 0.50 hr: 67%
KRAS G12C
  IC50: 0.247 µM

## C=CC(=O)N1CCN(c2nc(O[C@@H]3CN(C)C[C@H]3C3CC3)nc3c(Oc4c(Cl)c(F)cc5[nH]ncc45)nccc23)CC1 (racemic) [Example 39I, rac-1-[4-(8-[(5-chloro-6-fluoro-1H-indazol-4-yl)oxy]-2-{[(3S,4R)-4-cyclo-propyl-1-methyl-pyrrolidin-3-yl]oxy}pyrido [3,4-d]pyrimidin-4-yl)piperazin-1-yl]prop-2-en-1-one]
[1]
  MSRA (% modification) 5.0 μM 0.017 hr: 31%
KRAS G12C
  IC50: 0.083 µM

## C=CC(=O)N1CCN(c2nc(O[C@@H]3CN(CCOC)C[C@H]3OC)nc3c(Oc4c(Cl)c(F)cc5[nH]ncc45)nccc23)CC1 [Example 18H, 1-[4-(8-[(5-chloro-6-fluoro-1H-indazol-4-yl)oxy]-2-{[(3R,4R)-4-methoxy-1-(2-methoxyethyl)pyrrolidin-3-yl]oxy}pyrido[3,4-d]pyrimidin-4-yl)piperazin-1-yl]prop-2-en-1-one]
[1]
  MSRA (% modification) 5.0 μM 0.017 hr: 52%
KRAS G12C
  IC50: 0.07 µM

## C=CC(=O)N1CCN(c2ncnc3c(Oc4c(Cl)c(C)cc5[nH]ncc45)nccc23)C[C@H]1C [Example 21A, 1-[(2R)-4-{8-[(5-chloro-6-methyl-1H-indazol-4-yl)oxy]pyrido[3,4-d]pyrimidin-4-yl}-2-methylpiperazin-1-yl]prop-2-en-1-one]
[1]
  MSRA (% modification) 10 μM 0.50 hr: 12%
KRAS G12C
  IC50: 10.6 µM

## C=CC(=O)N1CCN(c2nc(OC[C@@H]3C[C@H](F)CN3C)nc3c(Oc4c(C)c(Cl)cc5[nH]ncc45)nc(Cl)cc23)CC1 [Example 17G, 1-[4-(6-chloro-8-[(6-chloro-5-methyl-1H-indazol-4-yl)oxy]-2-{[(2S,4S)-4-fluoro-1-methylpyrrolidin-2-yl]methoxy}pyrido[3,4-d]pyrimidin-4-yl)piperazin-1-yl]prop-2-en-1-one]
[1]
  MSRA (% modification) 10 μM 0.25 hr: 79%
KRAS G12C
  IC50: 0.054 µM

## C=CC(=O)N1CCN(c2nc(O[C@@H]3CN(C)C[C@@H]3C)nc3c(Oc4c(Cl)c(F)cc5[nH]ncc45)nc(Cl)cc23)CC1 (racemic) [Example 31G, rac-1-[4-(6-chloro-8-[(5-chloro-6-fluoro-1H-indazol-4-yl)oxy]-2-{[(3R,4R)-1,4-dimethylpyrrolidin-3-yl]oxy}pyrido[3,4-d]pyrimidin-4-yl)piperazin-1-yl]prop-2-en-1-one]
[1]
  MSRA (% modification) 5.0 μM 0.017 hr: 26%
KRAS G12C
  IC50: 0.135 µM

## C=CC(=O)N1CCN(c2ncnc3c(Oc4c(C)ccc5[nH]ncc45)nc(C#N)cc23)CC1 [Example 18A, 4-(4-acryloylpiperazin-1-yl)-8-[(5-methyl-1H-indazol-4-yl)oxy]pyrido[3,4-d]pyrimidine-6-carbonitrile]
[1]
  MSRA (% modification) 10 μM 0.50 hr: 34%
KRAS G12C
  IC50: 6.45 µM

## C=CC(=O)N1CCN(c2nc(OCCO)nc3c(Oc4c(Cl)c(F)cc5[nH]ncc45)nc(Cl)cc23)CC1 [Example 23G, 1-(4-{6-chloro-8-[(5-chloro-6-fluoro-1H-indazol-4-yl)oxy]-2-(2-hydroxyethoxy)pyrido[3,4-d]pyrimidin-4-yl}piperazin-1-yl)prop-2-en-1-one]
[1]
  MSRA (% modification) 5.0 μM 0.25 hr: 35%
KRAS G12C
  IC50: 0.688 µM
